Tests used:
[1] = system: Aβ in neuro2a (N2a) neuroblastoma cells; assay: Aβ production in N2a cells transfected with human APPSwe/PS1D (ELISA); format: cell-based, mouse; conditions: for levels of intracellular Aβ / levels of secreted Aβ: various concentrations; for levels of intracellular Aβ: FIG. 11a; for levels of secreted Aβ: FIG. 11b; for concentration dependence of Aβ inhibition: up to 10 μM to 100 μM, no evidence of downregulation
Method: Cell culture. Rat hippocampal H19-7/IGF-IR cells (ATCC, Manassas, Va.) were plated onto poly-L-lysine coated plates and grown at 35° C. in DMEM/10% FCS for several days until about 50% coverage was obtained. The cells were then induced to differentiate into a neuronal phenotype by replacing the medium with 5 ml N2 medium containing 10 ng/ml basic fibroblast growth factor at 39° C. and grown in T-75 flasks at 37° C. Human SH-SY5Y neuroblastoma cells (ATCC) were cultured in 45% F12K/45% MEM/10% FCS. Mouse N2A neuroblastoma cells were cultured in DMEM/10% FCS without glutamine. Rat hippocampal neurons from 18-day-old embryonic Sprague Dawley rat brains were plated on 12- or 96-well plates coated with poly-D-lysine (Sigma-Aldrich, St. Louis, Mo.) in B-27 neurobasal medium containing 0.5 mM glutamine and 25 μM glutamate (Invitrogen, Carlsbad, Calif.) and cultured for three days in the medium without glutamate. The neuronal cells were grown under 5% CO2 in an incubator maintained at 37° C. for 14 days.
(§1) Aβ Measurement and Cell Viability Assay. Aβ was measured using an Aβ 1-42 human fluorimetric ELISA kit (Invitrogen) according to the manufacturer's instructions. Results were measured in a Biotek Synergy HT microplate reader. AlamarBlue and CyQuant NF (Invitrogen) according to the manufacturer's instructions.
To measure the effects of PKCε activation on Aβ production, mouse neuro2a (N2a) neuroblastoma cells transfected with human APPSwe/PSID were used, which produce large quantities of Aβ. Petanceska et al., J Neurochem. (1996), vol. 74, pp. 1878-1884. […] With bryostatin, which activates PKC by binding to the diacylglycerol-binding site, the inhibition was biphasic with concentrations of 20 nM or higher producing no net effect. This may be explained by the ability of this class of PKC activators to downregulate PKC when used at high concentrations.

[2] = system: SH-SY5Y neuroblastoma cells; assay: Cell survival and proliferation (alamar Blue, CyQuant); format: cell-based, human
Method: as §1

[3] = system: TACE in N2a neuroblastoma cells; assay: TACE assay, N2a cells; format: cell-based; conditions: N2a mouse neuroblastoma cells, FIG. 13a
Method: FIGS. 13a, 13b and 13c show effects of (FIG. 13a) bryostatin, BR-101 (DCP-LA) and BR-111 (DHA-CP6) on TACE activity in N2a neuroblastoma cells transfected with human APPSwe/PS1D; (FIG. 13b) various concentrations of bryostatin on TACE activity in rat cortical primary neurons; and (FIG. 13c) BR-111 (DHA-CP6) on TACE activity in rat cortical primary neurons.
TACE Assay. TACE was measured by incubating 5 μl cell homogenate, 3 μl buffer (50 mM Tris-HCl 7.4 plus 25 mM NaCl plus 4% glycerol), and 1 μl of 100 μM TACE substrate (Aβz-[…]-DPa) (Calbiochem) for 20 min at 37° C. 1.5-ml polypropylene centrifuge tubes. Jin et al., Anal. Biochem. (2002), vol. 302, pp. 269-275. The reaction was stopped by cooling to 4° C. The samples were diluted to 1 ml and the fluorescence was rapidly measured (ex=320 nm, em=420 nm) in a Spex Fluorolog 2 spectrofluorometer.
Buxbaum et al., J Biol. Chem. (1998), vol. 273, pp. 27765-27767; Etcheberrigaray et al., Proc. Natl. Acad. Sci. USA (2006), vol. 103, pp. 8215-8220. However, many of these earlier studies were carried out in fibroblasts and other non-neuronal cell types, which appear to respond differently to PKC activators than neurons.

[4] = system: Endothelin-converting enzyme (ECE); assay: ECE assay in neuroblastoma cells; format: cell-based, human; conditions: bryostatin 0.27 nM, BR-101 1 μM, BR-111 1 μM; FIG. 14
Method: ECE assay. […] neuroblastoma cells were incubated with bryostatin (0.27 nM), BR-101 (DCP-LA) (1 μM), and BR-111 (DHA-CP6) (1 μM). Endothelin-converting enzyme (ECE) was measured fluorimetrically using the method of Johnson and Ahn (Anal. Biochem. (2000), vol. 286, pp. 112-118). A sample of cell homogenate (20 μl) was incubated in 50 mM MES-KOH, pH 6.0, 0.01% C12E10 (polyoxyethylene-10-lauryl ether), and 15 μM McaBK2 (7-Methoxycoumarin-4-acetyl [Ala7-(2,4-Dinitrophenyl)Lys9]-bradykinin trifluoroacetate salt) (Sigma-Aldrich). After 60 min at 37° C., the reaction was quenched by adding trifluoroacetic acid to 0.5%. The sample was diluted to 1.4 ml with water and the fluorescence was measured at ex=334 nm, em=398 nm.

SMILES | levels of intracellular Aβ ([1]; 24 hours) | levels of secreted Aβ ([1]; 24 hours) | concentration dependence of Aβ inhibition [1] | effect on cell survival (alamar Blue) [2] | effect on proliferation (CyQuant) [2] | TACE activity [3] | ECE activity [4] | concentrations producing no net effect on Aβ (biphasic inhibition) ([1]; 24 hours)
CCCCCC1CC1CC1CC1CCCCCCCC(=O)O (stereo not drawn) [BR-101, 2-[(2-pentylcyclopropyl)methyl]cyclopropaneoctanoic acid] | markedly reduced | markedly reduced | monotonically increasing inhibition | no effect | no effect | small increases | sustained increase | –
CCC1CC1CC1CC1CC1CC1CC1CC1CC1CC1CC1CC1CCC(=O)OC (stereo not drawn) [BR-111, methyl-3-(2-((2-((2-((2-((2-((2-ethylcyclopropyl)methyl)cyclopropyl)methyl)cyclopropyl)methyl)-cyclopropyl)methyl)cyclopropyl)methyl)cyclopropyl)propanoate] | markedly reduced | markedly reduced | monotonically increasing inhibition | no effect | no effect | small increases | sustained increase | –
CCC/C=C/C=C/C(=O)O[C@H]1/C(=C/C(=O)OC)C[C@H]2C[C@H]([C@@H](C)O)OC(=O)C[C@H](O)C[C@@H]3C[C@H](OC(C)=O)C(C)(C)[C@](O)(C[C@@H]4C/C(=C/C(=O)OC)C[C@H](/C=C/C(C)(C)[C@]1(O)O2)O4)O3 [Bryostatin-1, bryostatin-1] | markedly reduced | markedly reduced | – | no effect | no effect | small increases | sustained increase | ≥ 20 nM
